In patent publication US6812245B2, “Polycylic xanthones and their use” (Instituto Biomar S.A., priority 2000, dated 2004):
Values after ≈ are worked out from the molar mass of the structure shown.

Assays:
Assay type in all cases: cell-based
[1] = test system: human melanoma MEL-28; test: in vitro antitumour activity in cell cultures, human melanoma MEL-28; settings: SK-MEL-28; human melanoma MEL-28 cell culture
Protocol: (§1) The antitumour activities of IB-00208 have been determined in vitro in cell cultures of mouse leukaemia P-388, human lung carcinoma A-549, human colon carcinoma HT-29 and human melanoma MEL-28. The procedure was carried out using the methodology described by Bergeron et al. The IC50 found was of 0.001, 0.001, 0.001, and 0.001 μg/ml for all 4 cell lines.

[2] = test system: human lung carcinoma A-549; test: in vitro antitumour activity in cell cultures, human lung carcinoma A-549; settings: A549; human lung carcinoma A-549 cell culture
Protocol: as §1

[3] = test system: human colon carcinoma HT-29; test: in vitro antitumour activity in cell cultures, human colon carcinoma HT-29; settings: human colon carcinoma HT-29 cell culture
Protocol: as §1

[4] = test system: mouse leukaemia P-388; test: in vitro antitumour activity in cell cultures, mouse leukaemia P-388; settings: P388; mouse leukaemia P-388 cell culture
Protocol: as §1

IC50 [1]: 1 ng/mL (≈ 1.45 nM)
IC50 [2]: 1 ng/mL (≈ 1.45 nM)
IC50 [3]: 1 ng/mL (≈ 1.45 nM)
IC50 [4]: 1 ng/mL (≈ 1.45 nM)
Compound: COc1ccc(OC)c2c(=O)c3c(oc12)C(=O)c1ccc2c(OC4OC(C)C(OC)C(OC)C4OC)c4c(c(O)c2c1C3=O)C(=O)OC(C)C4 (stereo not shown) [IB-00208]
